Source: patent US11479755B2, “T cell compositions” (2seventy bio, Inc., priority 2015, dated 2022)
“Also recorded” adds a separate entry of the source.

Tests used:
T cells [1] = assay: T cell proliferation by CellTrace Violet dilution (flow cytometry); assay type: cell-based, human
Procedure: (§1) Peripheral blood mononuclear cells (PBMC) are a heterogeneous cellular population containing T cells. PBMC were harvested from normal donors and labeled with a fluorescent dye (CellTrace® Violet, Molecular Probes), whose intensity is progressively diluted by a factor of two with each cell division. The labeled PBMCs were used as a source of cells for T cell expansion. […] The impact of MK-2206 on cell division was assayed by evaluating CellTrace Violet dilution with flow cytometry after the addition of 0.025 μM, 0.074 μM, 0.222 μM, 0.67 μM, or 2.0 μM, MK-2206 to the T cultures at day 0. […] A pairwise t test was performed on all day seven cultures; (each concentration of MK-2206 was compared to 0 μM MK-2206: the cultures were not statistically different at the p≤0.05 level).

anti-BCMA CAR T cells [2] = assay: Integrated copies of anti-BCMA CAR (vector copy number) by quantitative PCR; assay type: cell-based, human; conditions: end of culture, four normal donors, 1×10^8 transducing units lentivirus
Procedure: (§2) 1×10^8 transducing units of lentivirus encoding anti-BCMA CARs were added one day after culture initiation and at the end of culture, the anti-BCMA CAR T cells were interrogated for genomic integration and cell surface expression of the anti-BCMA CAR.
Integrated copies of the anti-BCMA CAR were assessed by quantitative PCR at the end of culture using primers that detect the vector or the genomic control RNAseP.

anti-BCMA CAR T cells [3] = assay: CD62L expression on anti-BCMA CAR T cells by flow cytometry at end of culture; assay type: cell-based, human
Procedure: CAR T cells were cultured with either MK-2206 or triciribine phosphate-TCN (AKT inhibitors) or ZSTK474 (PI3K inhibitor). CAR T cells specific for B cell maturation antigen (BCMA) were used in these set of experiments. CAR T cell cultures were performed using a system directly scalable to large clinical manufacturing processes. […] 2×10^8 transducing units of lentivirus encoding anti-BCMA CARs were added one day after culture initiation. […] At the end of culture, the anti-BCMA CAR T cells were interrogated for phenotype.
(§3) Expression of CD62L on anti-BCMA CAR T cells was assessed by flow cytometry at the end of culture. Anti-BCMA CAR T cells were specifically identified using recombinant human BCMA-IgG Fc conjugated to PE. CD62L expression was determined with a co-stain using an antibody specific to CD62L. […] (FIG. 3).
Anti-BCMA CAR T cells cultures were prepared using a system directly scalable to large clinical manufacturing processes. […] 2×10^8 transducing units of lentivirus encoding anti-BCMA CARs were added one day after culture initiation. […] At the end of culture, the anti-BCMA CAR T cells were interrogated for phenotype.
as §3, with “7).” for “3).”

T cells [4] = assay: CD62L expression on T cells cultured with MK-2206; assay type: cell-based, human
Procedure: as §1, with “level). The purpose of this experiment was to determine the effect of Akt inhibitors on T cell markers for T cell potency. The impact of MK-2206 (Selleckchem) on T cell potency was assessed by measuring CD62L expression in the T cell cultures manufactured in Example 1. Mouse models have shown that CD62L expression identifies potent T cells; T cells with greater anti-tumor efficacy after adoptive transfer. […] FIG. 2. A pairwise T test was performed on all day seven cultures (each concentration of MK-2206 was compared to 0 μM MK-2206: *p<0.05, **p<0.01).” for “level).”

anti-BCMA CAR T cells [5] = assay: Cell surface expression of anti-BCMA CAR by flow cytometry; assay type: cell-based, human; conditions: end of culture, four normal donors
Procedure: as §2
Expression of the anti-BCMA CAR on the surface of T cells was assessed by flow cytometry at the end of culture. Anti-BCMA CAR T cells were specifically identified using recombinant human BCMA-IgG Fc conjugated to PE.

anti-BCMA CAR T cells [6] = assay: CD8 expression by flow cytometry; assay type: cell-based, human; conditions: seven normal donors, IL-2 and ZSTK474
Procedure: CD8 expression was determined using a fluorescently-labeled anti-CD8 antibody and flow cytometry. […] FIG. 10.

anti-BCMA CAR T cells [7] = assay: Cell surface marker expression by multiparameter mass cytometry (CyTOF); assay type: cell-based
Procedure: Expression analysis of 29 additional cell surface markers on anti-BCMA CAR T cells cultured with IL-2 and ZSTK474 was performed using multiparameter mass cytometry (CyTOF) and compared with CAR T cells cultured in IL-2 alone.

anti-BCMA CAR T cells [8] = assay: Tonic (antigen-independent) IFN-γ release by ELISA; assay type: cell-based; conditions: 14 donors; after ten days of culture; IFN-γ levels below 200 pg/mL represent no tonic activity
Procedure: Tonic activity of CAR T cells in the absence of antigen has been associated with reduced biological activity. […] Anti-BCMA CAR T cells cultures were prepared using a system directly scalable to large clinical manufacturing processes. […] 2×10^8 transducing units of lentivirus encoding anti-BCMA CARs were added one day after culture initiation. […] At the end of manufacture, an equivalent number of anti-BCMA CAR T cells were re-cultured for 24 hours in media alone. The amount of IFN-γ released in 24 hours was quantified by ELISA. In this assay IFN-γ levels below 200 pg/mL represent no tonic activity.

anti-BCMA CAR T cells [9] = assay: CD127, CD197, CD38 co-expression by fluorescence-based flow cytometry; assay type: cell-based; conditions: seven donors, ten days of culture
Excerpt: The mass cytometry data in Example 8 identified a set of cell surface markers that further characterizes the phenotype of CART cells cultured in the presence of ZSTK474. […] CAR T cells from seven donors cultured in the presence or absence of ZSTK474 were stained with fluorescently labeled antibodies to CD127, CD197, and CD38. […] FIG. 9.

[10] = Example 3: ten days of culture with IL-2 and optimized dose of inhibitor, three normal donors
[11] = Example 7: ten days of culture with IL-2 and optimized dose of inhibitor, four normal donors

Structure (SMILES) | T cell division / proliferation vs vehicle or non-treated controls (T cells [1]; seven days of culture, 0.025-2.0 μM MK-2206, IL-2, pairwise t test p≤0.05) | T cell division / proliferation vs no treatment control (T cells [1]; three days of culture, 0.025-2.0 μM MK-2206, IL-2, CD3 and CD28 antibodies) | integrated copies of the anti-BCMA CAR vs IL-2 only (anti-BCMA CAR T cells [2]) | CD62L expression on anti-BCMA CAR T cells vs IL-2 alone (anti-BCMA CAR T cells [3]; [10]) | CD62L expression on anti-BCMA CAR T cells vs IL-2 alone (anti-BCMA CAR T cells [3]; [11]) | CD62L expression on T cells vs no treatment control (T cells [4]; seven days of culture, all concentrations of MK-2206 tested, in presence of IL-2) | CD62L expression on T cells vs no treatment control (T cells [4]; three days of culture with MK-2206) | anti-BCMA CAR expression on the surface of T cells vs IL-2 alone (anti-BCMA CAR T cells [5]) | CD8 expression vs IL-2 alone (anti-BCMA CAR T cells [6]) | percentage of cells co-expressing CD127, CD197 and CD38 vs IL-2 alone (Venn diagrams) (anti-BCMA CAR T cells [7]; CD62L positive anti-BCMA T cells, ten days of culture) | anti-BCMA CAR T cells co-expressing CD127, CD197 and CD38 (anti-BCMA CAR T cells [7]; CyTOF, CD62L positive cells, ten days of culture) [%] | expression of CD127, CD197 and CD38 vs IL-2 alone (anti-BCMA CAR T cells [7]; CyTOF, anti-BCMA CAR T cells cultured with IL-2 and ZSTK474) | IFN-γ released in 24 hours in media alone (tonic activity) (anti-BCMA CAR T cells [8]) | anti-BCMA CAR T cells co-expressing CD127, CD197 and CD38 vs IL-2 alone (anti-BCMA CAR T cells [9])
NC1(c2ccc(-c3nc4ccn5c(=O)[nH]nc5c4cc3-c3ccccc3)cc2)CCC1 [MK-2206] | no statistically significant differences in T cell division; also recorded: not substantially different | did not substantially decrease T cell division; also recorded: only slightly decreased | significantly more integrated copies | significantly higher CD62L expression | significantly higher CD62L expression | significantly increases CD62L expression; also recorded: significant higher levels of CD62L expression | not substantially different | significantly higher CAR expression |  |  |  |  |  | 
Nc1nc(N)c2nc(-c3cccc(O)c3)cnc2n1 [TG100713] |  |  |  |  | significantly higher CD62L expression |  |  |  |  |  |  |  |  | 
FC(F)c1nc2ccccc2n1-c1nc(N2CCOCC2)nc(N2CCOCC2)n1 [ZSTK474] |  |  |  | increased CD62L expression; also recorded: significantly higher CD62L expression | significantly higher CD62L expression |  |  |  | significantly higher CD8 expression; also recorded: increased percentage of CD8 expressing anti-BCMA CAR T cells | increase in the percentage of cells co-expressing CD127, CD197 and CD38 | 24.5 | increased expression | consistent with lacking tonic activity; also recorded: did not significantly increase | significant increase; also recorded: increase in the percentage of cells co-expressing CD127, CD197 and CD38
